Peptide text beside a SMILES is read from it. * marks the point of attachment. Biotin = O=C1N[C@H]2[C@H](CS[C@H]2CCCCC(=O)*)N1
Tests used:
Assay type in all cases: in vivo, female volunteers
lashes [1] = assay: Lash diameter by photo measurement and image analysis, same double-blind clinical study; conditions: after 30 days of daily use; 2% in a basic mascara formula
Protocol: (§1) Lashes were photographed in a precise manner that could be reproduced and at a special angle so that lashes could be viewed perfectly. An image analysis was then performed on these photographs to quantify lash length and diameter in the central segment of the lids of female volunteers.
(§2) This was a double-blind study that employed non-invasive methods. 30 female volunteers used two mascaras: 1) VOLUMISING BLACK MASCARA (according to Example 1) containing 0.00066% of Biot-GHK and 0.01% of panthenol on one eye and 2) its placebo on the other eye (same formula without the active ingredients of the invention).
The measurements were performed before application (TO) then after 15 and 30 days of daily application. Application during the eight hours preceding a measurement day was not allowed.
The volunteers had to apply each mascara as follows: 3 brush strokes to the outside lashes, 4 brush strokes to the central lashes and 3 brush strokes to the interior lashes. […]
Once the head was correctly positioned on an appropriate mechanism, the lashes were frontally photographed using a Reflex Nikon D300 (12.3 megapixel) digital camera with a "macro" (60 mm F/2.8 GED) lens and a flash. The images were analysed with special software. […] The lengths and diameters were measured on the lashes of segments S2, S3 and S4 (5 lashes per segment) on each side. […]

lashes [2] = assay: Blind clinical evaluation of lash photos by 3 trained experts (lengthening, thickening); conditions: summary statement
Protocol: Concurrent to this quantitative metrological study, two other evaluations were performed: one clinical evaluation in which trained experts scored photos and another evaluation in which the volunteers themselves evaluated the perceived effects using a multi-item questionnaire.
as §2
Table 3: Blind evaluation performed by 3 trained experts on lash lengthening in photos of 30 volunteers.
Table 4: Blind evaluation performed by 3 trained experts on increased lash diameter in photos of 30 volunteers

lashes [3] = assay: Lash length by photo measurement and image analysis, double-blind clinical study, mascara on one eye versus placebo on the other; conditions: length and diameter, 15 and 30 days
Protocol: The purpose of the clinical study was to evaluate the following among volunteers: • lash lengthening, • lash thickening, • reinforcement of lash anchorage (decrease in lash loss during mascara removal).
as §1, §2
The measurements were performed before application (TO) then after 15 and 30 days of daily application. Application during the eight hours preceding a measurement day was not allowed. […]
Once the head was correctly positioned on an appropriate mechanism, the lashes were frontally photographed using a Reflex Nikon D300 (12.3 megapixel) digital camera with a "macro" (60 mm F/2.8 GED) lens and a flash. The images were analysed with special software. […] The lengths and diameters were measured on the lashes of segments S2, S3 and S4 (5 lashes per segment) on each side.

## NCCCC[C@H](NC(=O)[C@H](Cc1c[nH]cn1)NC(=O)CNC(=O)CCCC[C@@H]1SC[C@@H]2NC(=O)N[C@@H]21)C(=O)O [Biot-GHK peptide, Biotinoyl tripeptide-1] (Biotin-Gly-His-Lys-OH)
Lashes [1]
  Increase printed as "volume": +14.2 mm^3
Lashes [2]
  Subjects in whom the variation was observed (first of "respectively": length): 87%
  Subjects in whom the variation was observed (second of "respectively": diameter, printed volume): 73%
Lashes [3]
  Result higher than the increase of parameters with the placebo: about 60%
